# Calls of active or inactive are those of the source. No cut-off for these calls is given here.
# Tests used:
# [1] = target: T1, Trace amine-associated receptor 1 (Homo sapiens) (UniProt Q96RJ0); assay: Activation of human TAAR1 expressed in CHOK1 cells assessed as cAMP accumulation at 0.1 to 1 uM; type: functional, cell-based; settings: CHO-K1
# T1 sequence (whole entry): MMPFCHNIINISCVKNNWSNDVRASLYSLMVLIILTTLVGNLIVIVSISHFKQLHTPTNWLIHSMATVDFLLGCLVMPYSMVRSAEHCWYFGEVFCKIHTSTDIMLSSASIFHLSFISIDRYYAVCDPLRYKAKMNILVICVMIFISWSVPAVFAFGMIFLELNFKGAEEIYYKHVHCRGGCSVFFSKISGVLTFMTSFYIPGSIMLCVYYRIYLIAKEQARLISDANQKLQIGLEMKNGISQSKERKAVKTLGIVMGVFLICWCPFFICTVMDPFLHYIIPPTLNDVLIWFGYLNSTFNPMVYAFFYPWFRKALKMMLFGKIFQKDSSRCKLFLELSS
# [2] = target: T1, Trace amine-associated receptor 1 (Homo sapiens); assay: Activation of human TAAR1 expressed in CHOK1 cells coexpressing Galpha16 assessed as calcium accumulation at 0.1 to 1 uM relative to beta-phenethylamine; type: functional, cell-based; settings: CHO-K1
# CHO [3] = assay: Effect on calcium mobilization in CHO cells stably expressing Galpha16; type: functional, cell-based; settings: Cricetulus griseus
# [4] = target: T1, Trace amine-associated receptor 1 (Homo sapiens); assay: Activation of human TAAR1 expressed in CHOK1 cells assessed as cAMP accumulation at 10 uM relative to beta-phenethylamine; type: functional, cell-based; settings: CHO-K1
# [5] = target: T1, Trace amine-associated receptor 1 (Homo sapiens); assay: Activation of human TAAR1 expressed in CHOK1 cells coexpressing Galpha16 assessed as calcium accumulation relative to control; type: functional, cell-based; settings: CHO-K1
# [6] = target: T2, Trace amine-associated receptor 1 (Homo sapiens, UniProt Q96RJ0); assay: Activation of human TAAR1 expressed in CHOK1 cells coexpressing Galpha16 assessed as calcium accumulation; type: functional, cell-based, CHO-K1
# T2 sequence (Q96RJ0 whole entry): T1 sequence (whole entry)
# CHO [7] = assay: Effect on calcium mobilization in CHO cells stably expressing Galpha16 at 10 uM relative to beta-phenethylamine; type: functional, Cricetulus griseus
Activity [1],Activity [2],Activity [4] [%],Compound,further results
inactive,inactive,,CCCCc1oc2ccccc2c1C(=O)c1ccc(OCCN)cc1,
inactive,,,CCCCc1oc2ccccc2c1C(=O)c1cc(I)c(OCCN(CC)CC)c(I)c1,Activity (CHO [3]): inactive
inactive,inactive,,CCCCc1oc2ccccc2c1C(=O)c1ccc(OCCNCC)c(I)c1,
inactive,inactive,,CCCCc1oc2ccccc2c1C(=O)c1ccc(OCCN(CC)CC)c(I)c1,
inactive,inactive,< 5,CCCCc1oc2ccccc2c1C(=O)c1cc(I)c(OCCN)c(I)c1,
inactive,inactive,< 5,CCCCc1oc2ccccc2c1C(=O)c1ccc(OCCN)c(I)c1,
,,,NCCOc1ccccc1,Emax [5]: 41%; EC50 [6]: 1790 nM
inactive,inactive,,CCCCc1oc2ccccc2c1C(=O)c1cc(I)c(OCCNCC)c(I)c1 [DESETHYLAMIODARONE],Activity (CHO [7]): 44%
inactive,inactive,< 5,CCCCc1oc2ccccc2c1C(=O)c1ccc(OCCNCC)cc1,
inactive,inactive,,CCCCc1oc2ccccc2c1C(=O)c1ccc(OCCN(CC)CC)cc1,
